Test [1] relates to α-glucosidase. The following applies: peptides from silkworm pupae; cited from earlier work. An excerpt: (§1) At present, dietary proteins isolated from black beans, fermented soybean, balsam pear, and other sources have been identified as having anti-diabetic peptide properties. In vitro experiments have confirmed the hypoglycemic effects of many of these peptides, with some outperforming clinical drugs. […] He L, et al. isolated five peptides (GPVGPPG, GPPGPT, APGGAP, FGPGP, and GPVG) from bovine skin colla ...

The conditions of test [2]: peptides from bovine skin collagen; cited from earlier work.
Text: as §1

In test [3] the test system is α-glucosidase. Nature of the test: α-Glucosidase activity inhibition test (pNPG). In kind it is biochemical. The following applies: 0.1 to 0.7 mg/mL; in vitro; comparison with acarbose where stated. Here is the method:
The samples were prepared at different concentrations (1-7 mg/mL), and the following compounds were prepared: α-glucosidase (0.1 Ua), PBS (pH 6.8, 0.05 mol/L), PNPG (2.5 mmol/L), and Na2CO3 (1 mol/L). The control, sample blank, and sample groups were incubated at their appropriate temperature and time, and the absorbance at 405 nm was measured using a microplate reader. The inhibitory activity was calculated using Eq (2). The inhibition rate of α-glucosidase was solved according to the concentration of different mass samples. The IC50 values were calculated based on the fitting curves. […] All experiments were conducted in triplicate and the data are expressed as the mean ± standard deviation (SD). Statistical analysis was performed using SPSS 27.0 software with Duncan's multiple and one-way ANOVA tests to determine the differences among the mean values. The mapping was done using prism and bioinformatics tools (http://www.bioinformatics.com.cn/).

The values below come from article PMC10931479, “Exploration of hypoglycemic peptides from porcine collagen based on network pharmacology and molecular docking” (PLOS ONE, 2024).

“Also recorded” adds a separate entry of the source.

For SQSPA [peptide from silkworm pupae], the “Suppression of α-glucosidase activity” value in the test with α-glucosidase [1] is “can suppress α-glucosidase activity”.

With “APGGAP [peptide from bovine skin collagen]”, in test [2], the Anti-diabetic properties entry is “exhibited anti-diabetic properties”.

“GPVGPPG [peptide from bovine skin collagen]”: in test [2], the Anti-diabetic properties result is given as “exhibited anti-diabetic properties”.

As for QPGR [peptide from silkworm pupae], the “Suppression of α-glucosidase activity” value with α-glucosidase [1] is recorded as “can suppress α-glucosidase activity”.

Turning to “FGPGP [peptide from bovine skin collagen]”, the Anti-diabetic properties result in test [2] is on record as “exhibited anti-diabetic properties”.

For the substance NSPR [peptide from silkworm pupae], in the test on α-glucosidase [1], the “Suppression of α-glucosidase activity” value is “can suppress α-glucosidase activity”.

On to “GPVG [peptide from bovine skin collagen]”, for which the Anti-diabetic properties result in test [2] was “exhibited anti-diabetic properties”.

As for “GPPGPT [peptide from bovine skin collagen]”, in test [2], the Anti-diabetic properties entry was “exhibited anti-diabetic properties”.

“NWYR [tetrapeptide from in silico trypsin hydrolysis of porcine collagen BAX02569.1, synthesized by solid-phase synthesis]”: the “Inhibition of α-glucosidase in words” value in the test with α-glucosidase [3] is “significantly inhibited α-glucosidase activity in a concentration-dependent manner; also recorded: no significant difference between them and acarbose; also recorded: the inhibitory effect of NWYR was stronger”.

As for QPPT [peptide from silkworm pupae], in the test with α-glucosidase [1], the “Suppression of α-glucosidase activity” value is “can suppress α-glucosidase activity”.
